Test results as given in patent publication US20250230171A1 (MOMA Therapeutics, Inc., priority 2023, published 2025).
Where two headings read alike, the source gives them in different places.

Tests used:
[1] = test system: DLD1 WT cells; assay: 7-day cell viability assay (CellTiter-Glo), DLD1 parental (WT); type: cell-based, human; conditions: n=2
Protocol: (§1) Cell lines DLD1 WT and DLD1 BRCA2 (−/−) (Horizon Discovery Cat No. HD PAR-008 and HD-105-007) were plated in 384-well culture plates at seeding densities of 100cells/50 ul/well and 200 cells/50 uL/well respectively. The seeding densities are pre-determined from the growth curve kinetics performed to ensure log linear phase of cell growth for these 2 cell lines. These assay plates are then placed in the incubator at 37° C., 5% CO2, relative humidity >90% for a few hours before addition of test compounds. Compounds are dispensed using the Tecan HPD300 or Echo based on the plate map in the appropriate wells of the 384-well plates. The cells are treated with nine-point dose response with 3-fold serial dilutions of test compounds starting at 10 uM top concentration. After addition of the test compounds, the plates are incubated at 37° C., 5% CO2, relative humidity >90% for 7 days. CellTiter-Glo (Promega Cat. No. G7573), ATP detection reagent is prepared according to manufacturer's specifications. Cell assay plates are removed from incubator and bring to room temperature (RT) by letting them sit at bench top for at least 15 min. Using the MultiDrop liquid handler or a multichannel pipette, 35 μL/well of CTG is added and the plates are then placed shakes for 5 seconds, RT.

[2] = test system: DLD1 BRCA2 (−/−) cells; assay: 7-day cell viability assay (CellTiter-Glo), DLD1 BRCA2 (−/−); type: cell-based, human; conditions: n=2, read-out: Viability IC50 (uM) DLD1 BRCA2 null
Protocol: as §1

[3] = molecular target: biotinylated Avi-POLθ[2-894] (Homo sapiens (Human), UniProt O75417); assay: POLθ ATPase assay (ADP-Glo); conditions: n=2, read-out: Biochemical ATPase ADPGlo IC50
[4] = Homo sapiens, DLD-1, 168 h, 7-day CellTiter-Glo
[5] = Homo sapiens, DLD-1, 168 h, 7-day viability

biotinylated Avi-POLθ[2-894], sequence (O75417 2-894): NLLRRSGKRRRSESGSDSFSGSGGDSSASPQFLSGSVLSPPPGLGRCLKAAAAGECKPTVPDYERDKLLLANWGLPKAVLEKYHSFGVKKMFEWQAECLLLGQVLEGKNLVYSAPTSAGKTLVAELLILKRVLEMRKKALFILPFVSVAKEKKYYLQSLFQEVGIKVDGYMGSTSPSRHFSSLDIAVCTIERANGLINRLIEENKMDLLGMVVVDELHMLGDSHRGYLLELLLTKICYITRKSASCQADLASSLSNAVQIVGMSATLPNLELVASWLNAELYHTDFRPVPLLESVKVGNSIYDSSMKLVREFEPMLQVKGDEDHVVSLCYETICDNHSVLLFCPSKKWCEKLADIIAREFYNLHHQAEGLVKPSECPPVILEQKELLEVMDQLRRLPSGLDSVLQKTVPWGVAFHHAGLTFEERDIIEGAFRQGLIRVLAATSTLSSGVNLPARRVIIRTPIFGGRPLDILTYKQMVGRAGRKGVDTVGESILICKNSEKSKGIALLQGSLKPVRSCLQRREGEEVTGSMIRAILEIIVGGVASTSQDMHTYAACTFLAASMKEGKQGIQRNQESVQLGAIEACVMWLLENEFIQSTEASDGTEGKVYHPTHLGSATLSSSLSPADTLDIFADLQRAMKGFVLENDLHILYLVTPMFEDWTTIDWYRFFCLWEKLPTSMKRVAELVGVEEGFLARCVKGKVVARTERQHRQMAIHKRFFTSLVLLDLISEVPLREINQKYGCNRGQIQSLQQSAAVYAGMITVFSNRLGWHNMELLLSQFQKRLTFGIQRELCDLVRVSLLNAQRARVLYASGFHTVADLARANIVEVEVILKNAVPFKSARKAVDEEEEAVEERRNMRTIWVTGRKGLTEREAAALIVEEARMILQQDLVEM

Compound	IC50 [2, 4]	IC50 [3]	IC50 [1, 4]	also measured
N-(5-(benzo[d]oxazole-2-carbonyl)-5,6-dihydro-4H-pyrrolo[3,4-d]thiazol-2-yl)-2′-chloro-5′-methoxy-6-methyl-[4,4′-bipyridine]-3-carboxamide [Example 615]	–	–	–	IC50 ([1]; 7-day CellTiter-Glo): ≥ 10 µM
COc1cnc(Cl)cc1-c1cc(C)ncc1C(=O)Nc1nc2c(s1)CN(C(=O)c1nc(OC)c(Cl)cc1C)C2	0.001 to 0.1 µM	–	5 to 10 µM	–
Cc1cc(-c2cc(Cl)cnc2OC(F)F)c(C(=O)Nc2nc3c(s2)CN(C(=O)c2ccc(C(F)F)cn2)C3)cn1 [Example 938, 5-chloro-2-(difluoromethoxy)-N-(5-(5-(difluoromethyl)picolinoyl)-5,6-dihydro-4H-pyrrolo[3,4-d]thiazol-2-yl)-6′-methyl-[3,4′-bipyridine]-3′-carboxamide]	0.001 to 0.1 µM	–	≥ 10 µM	–
COc1cnc(Cl)cc1-c1cc(C)ncc1C(=O)Nc1nc2c(s1)CN(C(=O)c1nc(C)c(OC(F)(F)F)cc1C)C2 [Example 1028, 2′-chloro-N-(5-(3,6-dimethyl-5-(trifluoromethoxy)picolinoyl)-5,6-dihydro-4H-pyrrolo[3,4-d]thiazol-2-yl)-5′-methoxy-6-methyl-[4,4′-bipyridine]-3-carboxamide]	0.001 to 0.1 µM	–	≥ 10 µM	–
2′-chloro-N-(5-(5-chloropyrimidine-2-carbonyl)-5,6-dihydro-4H-pyrrolo[3,4-d]thiazol-2-yl)-5′-(difluoromethoxy)-6-methyl-[4,4′-bipyridine]-3-carboxamide [Example 648]	–	–	–	IC50 ([1]; 7-day CellTiter-Glo): ≥ 10 µM; IC50 ([2]; 7-day CellTiter-Glo): 0.001 to 0.1 µM
2′-Chloro-5′-methoxy-6-methyl-N-(5-(6-methyl-5-(trifluoromethoxy)picolinoyl)-5,6-dihydro-4H-pyrrolo[3,4-d]thiazol-2-yl)-[4,4′-bipyridine]-3-carboxamide [Example 555]	–	–	–	IC50 ([1]; 7-day CellTiter-Glo): ≥ 10 µM; IC50 ([2]; 7-day CellTiter-Glo): 0.001 to 0.1 µM
COc1cnc(Cl)cc1-c1cc(C)ncc1C(=O)Nc1nc2c(s1)CN(C(=O)c1ccc(C(F)F)c(Cl)n1)C2	0.001 to 0.1 µM	–	≥ 10 µM	–
2′-chloro-5′-methoxy-N-(5-(8-methoxyimidazo[1,5-a]pyridine-5-carbonyl)-5,6-dihydro-4H-pyrrolo[3,4-d]thiazol-2-yl)-6-methyl-[4,4′-bipyridine]-3-carboxamide [Example 627]	–	–	–	IC50 ([2]; 7-day CellTiter-Glo): 0.001 to 0.1 µM
CCc1nn(C)c(C(=O)N2Cc3nc(NC(=O)c4cnc(C)cc4-c4cc(Cl)ncc4OC)sc3C2)c1Cl [Example 56, 2′-chloro-N-(5-(4-chloro-3-ethyl-1-methyl-1H-pyrazole-5-carbonyl)-5,6-dihydro-4H-pyrrolo[3,4-d]thiazol-2-yl)-5′-methoxy-6-methyl-[4,4′-bipyridine]-3-carboxamide]	–	1 to 15 nM	–	IC50 [2, 5]: 0.001 to 0.1 µM
2′-Chloro-5′-methoxy-6-methyl-N-(5-(3-methylpyrazine-2-carbonyl)-5,6-dihydro-4H-pyrrolo[3,4-d]thiazol-2-yl)-[4,4′-bipyridine]-3-carboxamide [Example 412]	–	1 to 15 nM	–	IC50 ([1]; 7-day viability): ≥ 10 µM
CCc1c(Cl)c(C(=O)N2Cc3nc(NC(=O)c4cnc(C)cc4-c4cc(Cl)ncc4OC)sc3C2)nn1C [Example 70, 2′-chloro-N-(5-(4-chloro-5-ethyl-1-methyl-1H-pyrazole-3-carbonyl)-5,6-dihydro-4H-pyrrolo[3,4-d]thiazol-2-yl)-5′-methoxy-6-methyl-[4,4′-bipyridine]-3-carboxamide]	–	1 to 15 nM	–	IC50 [2, 5]: 0.001 to 0.1 µM
2′-Chloro-N-(5-(6-chloro-4-methylpicolinoyl)-5,6-dihydro-4H-pyrrolo[3,4-d]thiazol-2-yl)-5′-methoxy-6-methyl-[4,4′-bipyridine]-3-carboxamide [Example 390]	–	–	–	IC50 ([3]; POLθ ATPase, ADP-Glo): 1 to 15 nM; IC50 ([2]; 7-day CellTiter-Glo): 0.001 to 0.1 µM
COc1cnc(Cl)cc1-c1cc(C)ncc1C(=O)Nc1nc2c(s1)CN(C(=O)c1ccc(Cl)nc1OC)C2 [Example 20, 2′-chloro-N-(5-(6-chloro-2-methoxynicotinoyl)-5,6-dihydro-4H-pyrrolo[3,4-d]thiazol-2-yl)-5′-methoxy-6-methyl-[4,4′-bipyridine]-3-carboxamide]	–	1 to 15 nM	–	IC50 [2, 5]: 0.001 to 0.1 µM
COc1cnc(Cl)cc1-c1cc(C)ncc1C(=O)Nc1nc2c(s1)CN(C(=O)c1nc(C(F)F)cnc1OC)C2 [Example 468]	0.001 to 0.1 µM	–	–	IC50 ([3]; POLθ ATPase, ADP-Glo): 1 to 15 nM
2′-chloro-5′-methoxy-6-methyl-N-(5-(thiazole-2-carbonyl)-5,6-dihydro-4H-pyrrolo[3,4-d]thiazol-2-yl)-[4,4′-bipyridine]-3-carboxamide [Example 608]	–	–	–	IC50 ([1]; 7-day CellTiter-Glo): ≥ 10 µM
COc1ccc(C#N)cc1-c1cc(C)ncc1C(=O)Nc1nc2c(s1)CN(C(=O)C1CC1C)CC2 (stereo not drawn) [Example 211]	–	15 to 50 nM	–	–
COc1ccc(C#N)cc1-c1cc(C)ncc1C(=O)Nc1nc2c(s1)CN(C(=O)c1ccc(Cl)c(C(F)F)c1)C2	–	–	–	IC50 ([3]; POLθ ATPase, ADP-Glo): 1 to 15 nM
COc1cnc(Cl)cc1-c1cc(C)ncc1C(=O)Nc1nc2c(s1)CN(C(=O)C1CN(CC(F)F)C1)C2 [Example 24, 2′-chloro-N-(5-(1-(2,2-difluoroethyl)azetidine-3-carbonyl)-5,6-dihydro-4H-pyrrolo[3,4-d]thiazol-2-yl)-5′-methoxy-6-methyl-[4,4′-bipyridine]-3-carboxamide]	–	15 to 50 nM	–	–
COc1cnc(Cl)cc1-c1cc(C)ncc1C(=O)Nc1nc2c(s1)C[C@@H](C(=O)N1CC[C@@H](O)C1)CC2 [Example 681]	–	–	–	IC50 ([3]; POLθ ATPase, ADP-Glo): 150 to 900 nM

Now from value to compound, other results behind:

IC50 [2, 4]	IC50 [3]	Compound	IC50 [1, 4]	also measured
0.001 to 0.1 µM	–	COc1cnc(Cl)cc1-c1cc(C)ncc1C(=O)Nc1nc2c(s1)CN(C(=O)c1cnc(C(F)(F)F)cc1Cl)C2 [Example 973, 2′-chloro-N-(5-(4-chloro-6-(trifluoromethyl)nicotinoyl)-5,6-dihydro-4H-pyrrolo[3,4-d]thiazol-2-yl)-5′-methoxy-6-methyl-[4,4′-bipyridine]-3-carboxamide]	≥ 10 µM	–
0.25 to 0.5 µM	–	COc1cnc(Cl)cc1-c1cc(C)ncc1C(=O)Nc1nc2c(s1)CN(C(=O)c1ncc(Cl)c(C(F)F)n1)C2 (racemic)	≥ 10 µM	–
0.001 to 0.1 µM	–	COc1cnc(Cl)cc1-c1cc(C)ncc1C(=O)Nc1nc2c(s1)CN(C(=O)c1nc(C(F)(F)F)ccc1F)C2 [Example 936, 2′-chloro-N-(5-(3-fluoro-6-(trifluoromethyl)picolinoyl)-5,6-dihydro-4H-pyrrolo[3,4-d]thiazol-2-yl)-5′-methoxy-6-methyl-[4,4′-bipyridine]-3-carboxamide]	≥ 10 µM	–
0.001 to 0.1 µM	–	COc1cnc(Cl)cc1-c1cc(C)ncc1C(=O)Nc1nc2c(s1)CN(C(=O)c1nc(Cl)c(C(F)F)cc1F)C2 [Example 927, 2′-chloro-N-(5-(6-chloro-5-(difluoromethyl)-3-fluoropicolinoyl)-5,6-dihydro-4H-pyrrolo[3,4-d]thiazol-2-yl)-5′-methoxy-6-methyl-[4,4′-bipyridine]-3-carboxamide]	≥ 10 µM	–
0.001 to 0.1 µM	–	COc1cnc(Cl)cc1-c1cc(C)ncc1C(=O)Nc1nc2c(s1)CN(C(=O)c1nc(C(F)(F)F)ccc1Cl)C2 [Example 952, 2′-chloro-N-(5-(3-chloro-6-(trifluoromethyl)picolinoyl)-5,6-dihydro-4H-pyrrolo[3,4-d]thiazol-2-yl)-5′-methoxy-6-methyl-[4,4′-bipyridine]-3-carboxamide]	≥ 10 µM	–
–	1 to 15 nM	COc1cnc(Cl)cc1-c1cc(C)ncc1C(=O)Nc1nc2c(s1)CN(C(=O)c1c3c(nn1C)CCC3)C2 [Example 54, 2′-chloro-5′-methoxy-6-methyl-N-(5-(2-methyl-2,4,5,6-tetrahydrocyclopenta[c]pyrazole-3-carbonyl)-5,6-dihydro-4H-pyrrolo[3,4-d]thiazol-2-yl)-[4,4′-bipyridine]-3-carboxamide]	–	IC50 [2, 5]: 0.001 to 0.1 µM
–	1 to 15 nM	COc1cnc(Cl)cc1-c1cc(C)ncc1C(=O)Nc1nc2c(s1)CN(C(=O)[C@H]1C[C@@H](OC(F)(F)F)C1)C2 [Example 25, 2′-chloro-5′-methoxy-6-methyl-N-(5-((1s,3s)-3-(trifluoromethoxy)cyclobutane-1-carbonyl)-5,6-dihydro-4H-pyrrolo[3,4-d]thiazol-2-yl)-[4,4′-bipyridine]-3-carboxamide]	–	IC50 [2, 5]: 0.001 to 0.1 µM
–	1 to 15 nM	COc1cnc(Cl)cc1-c1cc(C)ncc1C(=O)Nc1nc2c(s1)CN(C(=O)c1cnn(C)c1C(F)F)C2 [Example 91, 2′-chloro-N-(5-(5-(difluoromethyl)-1-methyl-1H-pyrazole-4-carbonyl)-5,6-dihydro-4H-pyrrolo[3,4-d]thiazol-2-yl)-5′-methoxy-6-methyl-[4,4′-bipyridine]-3-carboxamide]	–	–
–	150 to 900 nM	COc1ccc(C#N)cc1-c1cc(C)ncc1C(=O)Nc1nc2c(s1)CN(C(=O)C1COC1)CC2 (single isomer, unassigned)	–	–
–	≥ 900 nM	COc1ccccc1-c1cc(C)ncc1C(=O)Nc1nc2c(s1)CN(C(=O)N(C)C)C2	–	–
